Data on seven compounds can be found in patent US20140323504A1, “Pyrazolo[4,3-c]Pyridine Derivatives As Kinase Inhibitors” (Cellzome Limited, priority 2011, published 2014).

This experiment addresses T1, JAK3 (Homo sapiens, UniProt P52333).
T1 sequence (P52333 1-1124): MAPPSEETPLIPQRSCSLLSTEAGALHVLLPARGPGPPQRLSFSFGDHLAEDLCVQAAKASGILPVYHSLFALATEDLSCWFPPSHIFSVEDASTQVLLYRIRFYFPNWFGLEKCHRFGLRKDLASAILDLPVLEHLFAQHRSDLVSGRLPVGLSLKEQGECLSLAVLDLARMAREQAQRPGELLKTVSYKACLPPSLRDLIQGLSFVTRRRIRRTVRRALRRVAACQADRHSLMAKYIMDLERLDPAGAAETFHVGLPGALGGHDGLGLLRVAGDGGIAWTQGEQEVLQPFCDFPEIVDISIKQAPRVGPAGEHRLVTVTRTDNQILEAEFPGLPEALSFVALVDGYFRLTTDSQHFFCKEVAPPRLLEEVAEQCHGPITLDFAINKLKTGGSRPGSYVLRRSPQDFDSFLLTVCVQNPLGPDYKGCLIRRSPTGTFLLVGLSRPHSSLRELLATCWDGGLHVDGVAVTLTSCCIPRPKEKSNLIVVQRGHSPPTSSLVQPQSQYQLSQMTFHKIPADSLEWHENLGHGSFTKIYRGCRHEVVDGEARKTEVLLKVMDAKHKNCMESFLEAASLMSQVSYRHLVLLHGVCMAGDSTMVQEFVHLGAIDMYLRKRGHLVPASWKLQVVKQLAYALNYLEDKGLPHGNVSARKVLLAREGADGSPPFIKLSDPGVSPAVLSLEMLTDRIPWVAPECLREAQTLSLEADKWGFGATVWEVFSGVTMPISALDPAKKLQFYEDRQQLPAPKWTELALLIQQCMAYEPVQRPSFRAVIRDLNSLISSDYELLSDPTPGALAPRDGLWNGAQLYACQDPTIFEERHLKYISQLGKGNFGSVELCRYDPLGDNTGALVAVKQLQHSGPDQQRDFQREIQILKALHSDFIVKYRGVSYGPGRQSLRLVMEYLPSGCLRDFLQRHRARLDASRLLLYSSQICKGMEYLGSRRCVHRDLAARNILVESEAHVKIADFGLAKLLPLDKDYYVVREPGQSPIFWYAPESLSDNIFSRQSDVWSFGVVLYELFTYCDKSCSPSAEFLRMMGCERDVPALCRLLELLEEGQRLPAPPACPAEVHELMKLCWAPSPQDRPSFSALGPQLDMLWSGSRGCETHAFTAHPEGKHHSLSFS
In words: Kinobeads assay with antibody detection, JAK3. It is filed as binding. Also noted: endogenous in cells; host or cells: mixed Molt4/Ramos cell lysate (1:2). The following applies: mixed Molt4/Ramos lysate, read-out: JAK3 inhibition value (IC50). As to the method:
The compounds of the present invention as described in the previous examples were tested in a Kinobeads™ assay as described for ZAP-70 (WO-A 2007/137867). Briefly, test compounds (at various concentrations) and the affinity matrix with the immobilized aminopyrido-pyrimidine ligand 24 were added to cell lysate aliquots and allowed to bind to the proteins in the lysate sample. After the incubation time the beads with captured proteins were separated from the lysate. Bound proteins were then eluted and the presence of JAK1; JAK2, JAK3 and TYK2 was detected and quantified using specific antibodies in a dot blot procedure and the Odyssey infrared detection system. Dose response curves for individual kinases were generated and IC50 values calculated. Kinobeads™ assays for ZAP-70 (WO-A 2007/137867) and for kinase selectivity profiling (WO-A 2006/134056) have been previously described.
5×DP buffer: 250 mM Tris-HCl pH 7.4, 25% Glycerol, 7.5 mM MgCl2, 750 mM NaCl, 5 mM Na3VO4; filter the 5×DP buffer through a 0.22 μm filter and store in aliquot at −80° C. The 5×DP buffer is diluted with H2O to 1×DP buffer containing 1 mM DTT and 25 mM NaF.
Stock solutions of test compounds were prepared in DMSO. In a 96 well plate 30 μL solution of diluted test compounds at 5 mM in DMSO were prepared. Starting with this solution a 1:3 dilution series (9 steps) was prepared. For control experiments (no test compound) a buffer containing 2% DMSO was used.
Molt4 cells (ATCC catalogue number CRL-1582) and Ramos cells (ATCC catalogue number CRL-1596) were grown in 1 L Spinner flasks (Integra Biosciences, #182101) in suspension in RPMI 1640 medium (Invitrogen, #21875-034) supplemented with 10% Fetal Bovine Serum (Invitrogen) at a density between 0.15×10^6 and 1.2×10^6 cells/mL. Cells were harvested by centrifugation, washed once with 1×PBS buffer (Invitrogen, #14190-094) and cell pellets were frozen in liquid nitrogen and subsequently stored at −80° C. Cells were homogenized in a Potter S homogenizer in lysis buffer: 50 mM Tris-HCl, 0.8% NP40, 5% glycerol, 150 mM NaCl, 1.5 mM MgCl2, 25 mM NaF, 1 mM sodium vanadate, 1 mM DTT, pH 7.5. One complete EDTA-free tablet (protease inhibitor cocktail, Roche Diagnostics, 1873580) per 25 mL buffer was added. The material was dounced 10 times using a mechanized POTTER S, transferred to 50 mL falcon tubes, incubated for 30 minutes on ice and spun down for 10 minutes at 20,000 g at 4° C. (10,000 rpm in Sorvall SLA600, precooled). The supernatant was transferred to an ultracentrifuge (UZ)-polycarbonate tube (Beckmann, 355654) and spun for 1 hour at 100.000 g at 4° C. (33.500 rpm in Ti50.2, precooled). The supernatant was transferred again to a fresh 50 mL falcon tube, the protein concentration was determined by a Bradford assay (BioRad) and samples containing 50 mg of protein per aliquot were prepared. The samples were immediately used for experiments or frozen in liquid nitrogen and stored frozen at −80° C.
Cell lysate (approximately 50 mg protein per plate) was thawed in a water bath at room temperature and then stored on ice. To the thawed cell lysate 1×DP 0.8% NP40 buffer containing protease inhibitors (1 tablet for 25 mL buffer; EDTA-free protease inhibitor cocktail; Roche. Diagnostics 1873580) was added in order to reach a final protein concentration of 10 mg/mL total protein. The diluted cell lysate was stored on ice. Mixed Molt4Ramos lysate was prepared by combining one volume of Molt4 lysate and two volumes of Ramos lysate (ratio 1:2).
Plates were sealed and incubated for 3 hours in a cold room on a plate shaker (Heidolph tiramax 1000) at 750 rpm. Afterwards the plate was washed 3 times with 230 μL washing buffer (1×DP 0.4% NP40). The filter plate was placed on top of a collection plate (Greiner bio-one, PP-microplate 96 well V-shape, 65120) and the beads were then eluted with 20 μL of sample buffer (100 mM Tris, pH 7.4, 4% SDS, 0.00025% bromophenol blue, 20% glycerol, 50 mM DTT). […]

As to `C=CC(=O)Nc1cccc(Cn2ncc3cnc(Nc4cnn(C)c4)nc32)c1` [Example 1, N-(3-((6-((1-Methyl-1H-pyrazol-4-yl)amino)-1H-pyrazolo[3,4-d]pyrimidin-1-yl)methyl)phenyl)acrylamide], the IC50 was determined as 5 nM.

On to `C=CC(=O)Nc1cc(Cn2ncc3cnc(Nc4cnn(C)c4)nc32)ccc1F` [Example 2, […]], for which the IC50 worked out at 16 nM.

On to `C#CC(=O)Nc1cccc(Cn2ncc3cnc(Nc4cnn(C)c4)nc32)c1` [Example 3, N-(3-((6-((1-Methyl-1H-pyrazol-4-yl)amino)-1H-pyrazolo[3,4-d]pyrimidin-1-yl)methyl)phenyl)propiolamide], for which the IC50 worked out at 10 nM.

As for `C=CS(=O)(=O)Nc1cccc(Cn2ncc3cnc(Nc4cnn(C)c4)nc32)c1` [Example 4, N-(3-((6-((1-Methyl-1H-pyrazol-4-yl)amino)-1H-pyrazolo[3,4-d]pyrimidin-1-yl)methyl)phenyl)ethenesulfonamide], the IC50 turned out to be 10 nM.

Consider `C=C(C)C(=O)Nc1cccc(Cn2ncc3cnc(Nc4cnn(C)c4)nc32)c1` [Example 5, N-(3-((6-((1-Methyl-1H-pyrazol-4-yl)amino)-1H-pyrazolo[3,4-d]pyrimidin-1-yl)methyl)phenyl)methacrylamide], for which the IC50 stood at 57 nM.

In the case of `C=CS(=O)(=O)Nc1cccc(Cn2ccc3cnc(Nc4cnn(C)c4)nc32)c1` [Example 7, N-(3-((2-((1-Methyl-1H-pyrazol-4-yl)amino)-7H-pyrrolo[2,3-d]pyrimidin-7-yl)methyl)phenyl)ethenesulfonamide], the IC50 was determined as 12 nM.

For the compound `CC(=O)Nc1cccc(Cn2ncc3cnc(Nc4cnn(C)c4)nc32)c1` [compound 2, N-(3-((6-((1-methyl-1H-pyrazol-4-yl)amino)-1H-pyrazolo[3,4-d]pyrimidin-1-yl)methyl)phenyl)acetamide, reference compound], the IC50 was determined as 206 nM.
